According to article PMC10385743:
Where “and” joins values, the source holds several entries; their conditions need not be identical. Equal entries are not always repeated.

Legend:
[1] = tested on: HCV GT 3a (strain S52) subgenomic replicon; assay: microbe, parasite or virus in culture; format: cell-based, hepatitis C virus; details: 72 h; luciferase; mean ± SD; read-out: Huh7.5-3a(S52) (HCV Replicon 3a) EC50
Huh5-2 cells = assay: Cytotoxicity in Huh5-2 replicon cells (intracellular ATP levels); details: read-out: Huh5-2 (HCV Replicon 1b) CC50; 72 h; ATP levels; mean ± SD; * highest concentration used 10 μΜ
[2] = tested on: bloodstream form T. b. brucei (strain 221)
[3] = tested on: HCV GT 4a (strain ED43) subgenomic replicon; assay: microbe, parasite or virus in culture; format: cell-based, hepatitis C virus; details: 72 h; luciferase; mean ± SD; read-out: Huh7.5-4a(ED43) (HCV Replicon 4a) EC50
[4] = tested on: rat skeletal myoblast L6 cells; assay: Cytotoxicity against cultured L6 cells (resazurin); details: read-out: L6 Cells CC50; mean of triplicate experiments ± SEM
[5] = tested on: T. cruzi (CL Brener strain) epimastigotes; details: read-out: T. cruzi EC50; epimastigotes; mean of triplicate experiments ± SEM
[6] = tested on: DENV serotype 2 (strain 16681) subgenomic replicon; assay: microbe, parasite or virus in culture; format: cell-based, dengue virus; details: 72 h; luciferase; mean ± SD; read-out: Huh7-D2 (DENV-2 Replicon) EC50
[7] = tested on: YFV (strain 17D) subgenomic replicon; assay: microbe, parasite or virus in culture; format: cell-based, yellow fever virus; details: read-out: Huh7-YF (YFV Replicon 17D) EC50; 72 h; luciferase; mean ± SD

CC1CCC2(NC(=O)N(CC(=O)NO)C2=O)c2ccccc21 [Compound 35, Ν-(Hydroxy)-2-((4R,4′R)/(4S,4′S)-4′-methyl-2,5-dioxo-3′,4′-dihydro-2′H-spiro[imidazolidine-4,1′-naphthalene]-1-yl)acetamide]
EC50 [1]: 0.77 ± 0.03 µM
CC50 (Huh5-2 cells): > 200 µM
EC50 ([2]; read-out: T. brucei EC50, cultured bloodstream form, mean of triplicate experiments ± SEM): 0.56 ± 0.07 µM
EC90 ([2]; read-out: T. brucei EC90, cultured bloodstream form, mean of triplicate experiments ± SEM): 0.86 ± 0.19 µM
SI (CC50 for L6 cells / EC50 for T. brucei) ([2]; selectivity index): 400
EC50 [3]: 0.41 ± 0.02 µM
CC50 [4]: > 200 µM and 224 µM
EC50 [5]: > 30 µM
EC50 [6]: > 10 µM
EC50 [7]: > 10 µM
